Assays:
[1] = tested on: MCF10A-HER2, ZR75.1, SKBR3; assay: 3D acini cultures in Matrigel, cleaved caspase-3 and P-histone H3; format: cell-based, human; conditions: 2 μM, 10 days
Experimental: Reagents, cell culture, and treatments: EGF was obtained from PeproTech (Rocky Hill, N.J.) and used at 100 ng/ml. Thapsigargin was from Sigma (St. Louis, Mo.) and used at 2 nM. The ZR75.1-H2B-Dendra2 cell line was generated by stable transfection of the H2B-Dendra2 plasmid (Gurskaya et al., “Engineering of a Monomeric Green-to-Red Photoactivatable Fluorescent Protein Induced by Blue Light,” Nat. Biotechnol. 24:461-465 (2006), which is hereby incorporated by reference in its entirety). For 3D cultures, MCF10A-HER2, SKBR3, and ZR75.1-H2B-Dendra2 cells were plated in growth factor-reduced Matrigel (Corning, Corning, N.Y.) and grown as described previously (Avivar-Valderas et al., “Regulation of Autophagy during ECM Detachment is Linked to a Selective Inhibition of mTORC1 by PERK,” Oncogene 32(41):4932-40 (2013), which is hereby incorporated by reference in its entirety). When referring to “low density,” 3,500 cells/8-well were seeded, and for “high density” 20,000 cells/8-well. Treatments with vehicle (DMSO) or LY4 (2 μM) were replaced every 24 hours for 2D and every 48 hours for 3D cultures. […]

[2] = tested on: HER2 in MCF10A-HER2 cells; assay: HER2 signaling Western blot and surface biotinylation/endocytosis assays; format: cell-based, human; conditions: 2 μM
Source text: Immunoblot analysis: Cells were lysed in RIPA buffer and protein analyzed by immunoblotting as described previously (Ranganathan et al., “Functional Coupling of p38-Induced Up-Regulation of BiP and Activation of RNA-Dependent Protein Kinase-Like Endoplasmic Reticulum Kinase to Drug Resistance of Dormant Carcinoma Cells,” Cancer Res. 66:1702-1711 (2006), which is hereby incorporated by reference in its entirety). Membranes were blotted using the additional following antibodies: P-PERK (T982) (Tenkerian et al., “mTORC2 Balances AKT Activation and eIF2alpha Serine 51 Phosphorylation to Promote Survival Under Stress,” Mol. Cancer Res. 13:1377-1388 (2015), which is hereby incorporated by reference in its entirety), PERK (Santa Cruz, Dallas, Tex.), P-EGFR(Y1148), EGFR, P-AKT(S473), P-S6 (S235/236) (Cell signaling, Danvers, Mass.), GAPDH (Millipore, Darmstadt, Germany), and β-Tubulin (Abcam, Cambridge, Mass.). For induction of ER stress, MCF10A-HER2 cells were plated in low adhesion plates for 24 hours before collection.
Cell surface biotinylation and endocytosis assay: For cell surface biotinylation, Pierce cell surface protein isolation kit was used following manufacturer's instructions with minor changes. Briefly, MCF10A-HER2 cells were serum- and EGF-starved and treated+/−LY4 for 24 hours before being stimulated with +/−EGF (100 ng/ml) for 20′. Then, cells were washed with ice-cold PBS and surface proteins biotinylated for 30 minutes at 4° C. After quenching, cells were harvested and lysed using RIPA buffer. Protein lysates were incubated with NeutrAvidin agarose beads and the bound proteins were released by incubation with SDS-PAGE sample buffer containing DTT (50 mM). For endocytosis assays (Cihil et al., “The Cell-Based L-Glutathione Protection Assays to Study Endocytosis and Recycling of Plasma Membrane Proteins,” J. Vis. Erp. e50867 (2013), which is hereby incorporated by reference in its entirety), cells were treated similarly but before treatment with EGF cell surface proteins were biotinylated. After 20 minute incubation+/−EGF (100 ng/ml) at 37° C. […]

[3] = tested on: Braf-mutant melanoma WM35 cells; assay: WM35 melanoma cell viability in 2D and 3D culture, GADD34 western blot; format: cell-based; conditions: after persistent treatment with Abemaciclib
Experimental: FIGS. 12A-12G show proposed mono or combination therapies that include the use of LY4 and experiments showing that the treatment of melanoma cells with the CDK4/6 inhibitor Abemaciclib in combination with LY4 differentially affects in vitro cell viability in 2D and 3D culture. FIG. 12A is a schematic illustration of the rationale for the combination of Abemaciclib and LY4. FIG. 12B is a bar graph showing the results of an in vitro treatment of Braf-mutant melanoma cells (WM35) with 0 nM, 10 nM, or 50 nM Abemaciclib for 1 week followed by 48 hour treatment with 2 μM LY4. FIG. 12C includes images of cells stained with DAPI following pre-treatment with Abemaciclib for 1 week, followed by treatment with 2 μM LY4. 5,000 cells were seeded on matrigel. In FIGS. 12D-12E, WM35 melanoma cells were pre-treated with Abemaciclib for 5 weeks, followed by treatment with LY4 in complete media and Abemaciclib. Cells were stained with Trypan blue to identify viable cells. FIG. 12D is a graph showing Abemaciclib sensitive cells. FIG. 12E is a graph showing Abemaciclib-resistant cells. FIG. 12F show images of cells stained with DAPI following pre-treatment with Abemaciclib for 5 weeks and co-treatment with 2 μM LY4 and Abemaciclib. 1,000 cells were seeded on matrigel. […]

Cc1cc(NC(=O)[C@H](O)c2cc(F)cc(F)c2)ccc1-c1cnc(N)c(C(=O)NC(C)C)c1 [LY4, 2-amino-5-[4-[[(2R)-2-(3,5-difluorophenyl)-2-hydroxy-acetyl]amino]-2-methyl-phenyl]-N-isopropyl-pyridine-3-carboxamide]
apoptosis (cleaved caspase-3) in 3D acini [1]: significantly increased the levels of apoptosis (cleaved caspase-3) | proliferation in 3D acini (phospho-histone H3) [1]: a significant change in the levels of proliferation as detected by phospho-histone H3 levels was not observed | P-HER2 and total HER2 on the cell surface (surface biotinylation) [2]: decreased the amount of P-HER2 and total HER2 in the cell surface | endocytosed phospho-HER2 and total HER2 (reversible surface biotinylation) [2]: increasing endocytosed phospho-HER2 and total HER2 | P-EGFR, P-HER2, P-AKT, P-S6, P-ERK1/2 levels (Western blot) ([2]; starved cells +/- EGF 100 ng/ml, 15 minutes): decreased both the basal and EGF-induced levels of P-EGFR and P-HER2 | viability of Abemaciclib resistant WM35 cells, 3D [3]: additive effect on decreasing viability in 3D cell culture
